Data set [1] addresses Histamine H2 receptor (Homo sapiens) (UniProt P25021). Kind of data set: Displacement of [125I]APT from recombinant human H2 histamine receptor at 10 uM after 120 mins by radiometric scintillation counting analysis relative to control. (In a radioligand displacement assay an active substance lowers the binding of a labelled ligand.)
A short description of data set [2]: Apparent volume of distribution in CD-1 mouse plasma at 5 mg/kg, ip measured up to 480 mins by LC/ESI-MS/MS analysis. It counts as ADME, organism-based.
Data set [3] can be described thus: Mutagenicity in Salmonella typhimurium TA102 at 5 ug/plate preincubated for 20 mins followed by addition of top agar and measured after 48 hrs by Ames test. The data set is classed as toxicity. The following applies: salmonella enterica subsp. enterica serovar typhimurium. For orientation: The Ames test detects mutagens through reverse mutation in bacteria.
The nature of data set [4]: Cmax in CD-1 mouse plasma at 5 mg/kg, ip measured up to 480 mins by LC/ESI-MS/MS analysis. The data set is classed as ADME, organism-based. Also noted: dose 5 mg/kg, route intraperitoneal.
A short description of data set [5]: Drug metabolism in mouse liver microsomes assessed as metabolite formation by measuring retention time at 20 uM after 30 to 60 mins in presence of NADP by UPLC/MS analysis. It counts as ADME, Microsome. For orientation: Liver microsomes are vesicles of endoplasmic reticulum, rich in cytochrome P450 enzymes.
The target in data set [6] is 5-hydroxytryptamine receptor 2B (Homo sapiens, UniProt P41595). As to the kind of experiment: Displacement of [125I](+/-)DOI from recombinant human 5-HT2B receptor after 60 mins by radiometric scintillation analysis.
5-hydroxytryptamine receptor 2B, sequence (P41595 whole entry): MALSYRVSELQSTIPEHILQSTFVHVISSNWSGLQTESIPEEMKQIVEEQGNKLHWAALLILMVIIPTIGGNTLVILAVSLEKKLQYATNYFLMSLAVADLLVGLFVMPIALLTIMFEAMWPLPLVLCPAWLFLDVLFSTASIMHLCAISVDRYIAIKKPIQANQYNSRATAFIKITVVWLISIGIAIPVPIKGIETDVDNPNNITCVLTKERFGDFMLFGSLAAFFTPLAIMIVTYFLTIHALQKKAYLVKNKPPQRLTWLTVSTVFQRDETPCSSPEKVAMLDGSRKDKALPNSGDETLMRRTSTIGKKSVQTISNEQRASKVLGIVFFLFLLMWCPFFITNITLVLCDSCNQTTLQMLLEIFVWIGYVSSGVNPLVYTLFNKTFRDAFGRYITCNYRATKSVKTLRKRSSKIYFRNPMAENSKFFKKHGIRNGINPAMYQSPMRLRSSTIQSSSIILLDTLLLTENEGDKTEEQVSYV
The target of data set [7] is Muscarinic acetylcholine receptor M3 (Homo sapiens) (UniProt P20309). Kind of data set: Displacement of [3H]4-DAMP from recombinant human M3 receptor at 10 uM after 60 mins by radiometric scintillation analysis relative to control.
Muscarinic acetylcholine receptor M3 (Homo sapiens), sequence (P20309 whole entry, looked up): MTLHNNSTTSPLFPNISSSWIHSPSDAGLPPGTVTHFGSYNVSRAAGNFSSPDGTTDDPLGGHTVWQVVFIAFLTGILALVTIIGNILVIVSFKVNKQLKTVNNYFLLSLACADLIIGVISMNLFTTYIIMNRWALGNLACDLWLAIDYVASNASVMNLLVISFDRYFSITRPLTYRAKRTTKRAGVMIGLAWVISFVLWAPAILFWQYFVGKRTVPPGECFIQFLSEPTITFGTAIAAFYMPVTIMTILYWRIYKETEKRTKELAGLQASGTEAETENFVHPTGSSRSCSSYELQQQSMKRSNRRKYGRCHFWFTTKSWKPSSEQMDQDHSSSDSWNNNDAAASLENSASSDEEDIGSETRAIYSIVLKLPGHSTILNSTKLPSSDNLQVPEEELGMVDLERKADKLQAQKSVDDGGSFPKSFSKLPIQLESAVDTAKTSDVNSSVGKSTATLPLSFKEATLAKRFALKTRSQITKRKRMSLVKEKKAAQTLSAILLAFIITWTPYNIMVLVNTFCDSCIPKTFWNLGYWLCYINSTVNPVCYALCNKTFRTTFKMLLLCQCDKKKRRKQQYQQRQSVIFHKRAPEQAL
Data set [8] concerns the target Prostaglandin E2 receptor EP4 subtype (Homo sapiens) (UniProt P35408). As to the kind of experiment: Displacement of [3H]PGE2 from recombinant human EP4 receptor at 10 uM after 120 mins by radiometric scintillation analysis relative to control.
In data set [9] the target is Histamine H1 receptor (Homo sapiens) (UniProt P35367). Kind of data set: Displacement of [3H]pyrilamine from recombinant human H1 histamine receptor at 10 uM after 60 mins by radiometric scintillation analysis relative to control.
Histamine H1 receptor (Homo sapiens), sequence (P35367 whole entry): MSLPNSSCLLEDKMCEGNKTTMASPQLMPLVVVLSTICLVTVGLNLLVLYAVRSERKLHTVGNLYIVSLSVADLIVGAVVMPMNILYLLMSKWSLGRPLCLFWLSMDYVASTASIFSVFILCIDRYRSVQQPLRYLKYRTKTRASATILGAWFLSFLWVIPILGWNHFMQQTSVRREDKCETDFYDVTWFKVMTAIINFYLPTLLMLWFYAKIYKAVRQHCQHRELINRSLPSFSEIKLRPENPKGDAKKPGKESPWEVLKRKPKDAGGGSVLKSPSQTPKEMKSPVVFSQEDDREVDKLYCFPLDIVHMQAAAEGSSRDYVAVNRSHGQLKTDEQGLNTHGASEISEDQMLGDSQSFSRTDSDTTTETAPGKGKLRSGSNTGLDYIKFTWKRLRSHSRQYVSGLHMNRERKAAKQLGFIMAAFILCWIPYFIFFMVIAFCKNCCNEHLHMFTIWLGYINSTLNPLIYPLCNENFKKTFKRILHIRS
In a further data set the test system is Mus musculus. As to the kind of experiment: Anxiolytic activity in albino Swiss CD-1 mouse assessed as increase in number of punished crossings at 5 mg/kg, ip administered 30 mins prior to test by four-plate test relative to control. The data set is classed as functional.
The species entered for data set [10] is Rattus norvegicus. Kind of data set: Displacement of [3H]batrachotoxinin from rat brain sodium channel site 2 at 10 uM after 60 mins by scintillation counting analysis relative to control relative to control.
In data set [11] the target is T1, 5-hydroxytryptamine receptor 2A (Homo sapiens, UniProt P28223). As to the kind of experiment: Displacement of [3H]ketanserin from recombinant human 5-HT2A receptor at 10 uM after 60 mins by radiometric scintillation analysis relative to control.
T1 sequence (P28223 whole entry): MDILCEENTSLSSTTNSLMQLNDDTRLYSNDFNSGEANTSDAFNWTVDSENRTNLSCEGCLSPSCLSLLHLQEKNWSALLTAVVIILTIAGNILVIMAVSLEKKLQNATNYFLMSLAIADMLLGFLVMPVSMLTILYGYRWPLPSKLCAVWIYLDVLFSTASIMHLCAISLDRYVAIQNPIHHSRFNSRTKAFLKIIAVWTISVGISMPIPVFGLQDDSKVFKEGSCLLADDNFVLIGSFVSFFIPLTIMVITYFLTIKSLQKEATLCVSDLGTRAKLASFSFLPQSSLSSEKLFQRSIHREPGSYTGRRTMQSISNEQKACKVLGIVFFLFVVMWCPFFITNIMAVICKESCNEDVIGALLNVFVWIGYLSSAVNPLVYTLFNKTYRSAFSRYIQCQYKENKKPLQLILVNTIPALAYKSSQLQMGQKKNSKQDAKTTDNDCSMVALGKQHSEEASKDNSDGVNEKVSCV
In data set [12] the target is 5-hydroxytryptamine receptor 1B (Homo sapiens) (UniProt P28222). As to the kind of experiment: Displacement of [3H]GR125743 from recombinant human 5-HT1B receptor at 10 uM after 60 mins by radiometric scintillation analysis relative to control.
5-hydroxytryptamine receptor 1B (Homo sapiens), sequence (P28222 whole entry): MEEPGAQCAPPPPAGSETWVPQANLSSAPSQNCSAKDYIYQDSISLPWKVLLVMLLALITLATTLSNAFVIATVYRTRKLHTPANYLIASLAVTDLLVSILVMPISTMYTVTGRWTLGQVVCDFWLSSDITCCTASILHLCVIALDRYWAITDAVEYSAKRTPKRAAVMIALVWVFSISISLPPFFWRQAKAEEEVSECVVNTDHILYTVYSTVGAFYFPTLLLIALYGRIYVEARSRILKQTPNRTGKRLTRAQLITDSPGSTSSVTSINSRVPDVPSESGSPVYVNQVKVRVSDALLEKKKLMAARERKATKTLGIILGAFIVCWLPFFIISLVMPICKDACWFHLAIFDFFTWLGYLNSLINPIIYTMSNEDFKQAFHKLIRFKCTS
Data set [13] addresses Nociceptin receptor (Homo sapiens) (UniProt P41146). As to the kind of experiment: Displacement of [3H]nociceptin from recombinant human ORL1 receptor at 10 uM after 60 mins by radiometric scintillation analysis relative to control.
A short description of data set [14]: Mutagenicity in Salmonella typhimurium TA102 at 250 ug/plate preincubated for 20 mins followed by addition of top agar and measured after 48 hrs by Ames test. The data set is classed as toxicity. To be noted: salmonella enterica subsp. enterica serovar typhimurium.
Data set [15] is filed under the species Rattus norvegicus. As to the kind of experiment: Displacement of [125I]alpha-dendrotoxin rat brain voltage-gated potassium channel at 10 uM after 60 mins by radiometric scintillation analysis relative to control.
Data set [16] deals with Galanin receptor type 2 (Homo sapiens) (UniProt O43603). Kind of data set: Displacement of [125I]galanin from recombinant human GAL2 receptor at 10 uM after 120 mins by radiometric scintillation analysis relative to control.
Galanin receptor type 2 (Homo sapiens), sequence (O43603 whole entry): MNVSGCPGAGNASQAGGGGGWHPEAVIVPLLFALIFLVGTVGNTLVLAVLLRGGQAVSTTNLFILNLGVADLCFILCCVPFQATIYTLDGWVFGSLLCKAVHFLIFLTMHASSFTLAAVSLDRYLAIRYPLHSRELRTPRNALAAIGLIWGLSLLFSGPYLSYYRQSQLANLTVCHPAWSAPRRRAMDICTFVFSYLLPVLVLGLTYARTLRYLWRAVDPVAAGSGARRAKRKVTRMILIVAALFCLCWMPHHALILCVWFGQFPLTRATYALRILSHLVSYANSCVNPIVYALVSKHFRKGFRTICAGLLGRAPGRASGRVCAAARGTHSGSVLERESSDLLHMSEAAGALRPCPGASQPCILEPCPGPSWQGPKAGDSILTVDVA
Data set [17] concerns the target T1, 5-hydroxytryptamine receptor 2A. Kind of data set: Displacement of [3H]ketanserin from recombinant human 5-HT2A receptor after 60 mins by radiometric scintillation analysis.

Structures are written as SMILES. pKi: −log10 of the molar value.

Prostaglandin E2 receptor EP4 subtype (Homo sapiens), sequence (P35408 whole entry): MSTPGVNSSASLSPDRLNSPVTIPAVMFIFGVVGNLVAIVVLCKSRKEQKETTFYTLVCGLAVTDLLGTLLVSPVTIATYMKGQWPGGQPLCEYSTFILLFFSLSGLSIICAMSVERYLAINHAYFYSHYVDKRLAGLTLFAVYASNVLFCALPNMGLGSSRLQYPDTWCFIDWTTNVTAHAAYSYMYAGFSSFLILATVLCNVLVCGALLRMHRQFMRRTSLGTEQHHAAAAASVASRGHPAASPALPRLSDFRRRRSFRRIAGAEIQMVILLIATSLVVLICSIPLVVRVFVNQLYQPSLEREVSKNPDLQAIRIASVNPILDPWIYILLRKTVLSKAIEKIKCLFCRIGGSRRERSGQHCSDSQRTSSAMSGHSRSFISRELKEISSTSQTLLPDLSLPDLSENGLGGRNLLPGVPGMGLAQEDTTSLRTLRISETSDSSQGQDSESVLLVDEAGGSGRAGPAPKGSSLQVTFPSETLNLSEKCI
Nociceptin receptor (Homo sapiens), sequence (P41146 whole entry): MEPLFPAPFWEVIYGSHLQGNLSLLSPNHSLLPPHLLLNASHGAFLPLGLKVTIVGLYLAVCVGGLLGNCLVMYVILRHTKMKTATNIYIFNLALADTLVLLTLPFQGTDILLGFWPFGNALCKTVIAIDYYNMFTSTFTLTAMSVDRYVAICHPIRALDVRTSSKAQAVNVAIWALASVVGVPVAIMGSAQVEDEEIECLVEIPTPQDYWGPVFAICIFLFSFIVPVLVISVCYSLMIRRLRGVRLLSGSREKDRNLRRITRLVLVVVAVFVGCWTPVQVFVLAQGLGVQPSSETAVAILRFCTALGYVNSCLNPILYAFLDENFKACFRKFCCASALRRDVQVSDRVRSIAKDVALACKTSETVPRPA
Histamine H2 receptor (Homo sapiens), sequence (P25021 whole entry): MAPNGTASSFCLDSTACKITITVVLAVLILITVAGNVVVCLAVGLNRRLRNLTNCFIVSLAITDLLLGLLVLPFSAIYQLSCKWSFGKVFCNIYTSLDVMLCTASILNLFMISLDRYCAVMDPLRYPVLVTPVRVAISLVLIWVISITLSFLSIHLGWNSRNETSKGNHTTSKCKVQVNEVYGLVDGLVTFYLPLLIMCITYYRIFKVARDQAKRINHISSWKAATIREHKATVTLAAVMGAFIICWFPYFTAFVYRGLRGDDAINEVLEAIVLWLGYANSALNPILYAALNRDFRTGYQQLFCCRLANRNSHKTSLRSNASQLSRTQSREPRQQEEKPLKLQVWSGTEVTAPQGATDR

As usually defined, the inhibition is the relative decrease from the control value, in per cent. Broadly, the Vd/F is the apparent distribution volume after extravascular dosing. In general, Cmax refers to the maximum level reached in the sampled fluid or tissue. By pKi is commonly meant −log10 of the Ki, conventionally taken in molar units. As for `Cl.Cl.O=c1c2cc(Cl)ccc2oc2ccc(CN3CCN(CCOCCO)CC3)cc12`, the inhibition in data set [1] turned out to be 10.3%; in data set [7], 50.1%; in data set [8], 10.9%; in data set [9] it was 43.1%; in the data set filed under Rattus norvegicus [10], 78.7%; in data set [11], 62.8%. Also, the inhibition in [12] was 32.7%; in data set [13] it was 6.5%; in the data set listed under Rattus norvegicus [15], -3.1%; in data set [16] it was 1.4%. Further, the Vd/F in data set [2] turned out to be 3.06 L/kg. Besides, the Activity_index in data set [3] stood at 0.93; in data set [14], 1.28. The compound also returned a Cmax in data set [4] of 1920 ng/mL. The Retention_time in data set [5] came out at 4.49 min. For the same compound, the pKi in [6] is 5.54; in data set [17], 5.69. Moreover, in the data set with Mus musculus, the Activity came to 66.6%.

The values are drawn from ChEMBL document CHEMBL4364344, “Design, synthesis and evaluation of activity and pharmacokinetic profile of new derivatives of xanthone and piperazine in the central nervous system” (Bioorg Med Chem Lett, 2019).
